Where “and” joins values, the source holds several entries; their conditions need not be identical. Equal entries are not always repeated.
Biological target: Replicase polyprotein 1ab (Severe acute respiratory syndrome coronavirus 2, UniProt P0DTD1)
Test: Functional biochemical assay to identify treatments for viral infectious disease that targets SARS-COV-2 nsp3 macrodomain, whereby the mechanism of action displaces an ADP-Ribose modified peptide from the binding site. Utilizing a time-resolved fluorescence method to measure binding by reading the emitted fluorescence intensity in two wavelengths.

For `CC(C)[C@@H](Nc1ncnc2[nH]c(C(=O)NCCc3c[nH]nn3)cc12)c1ccc2c(c1)OCCO2`, the IC50 was 1.29 µM and 0.947 µM.
`CS(=O)(=O)Nc1cccc([C@@H](CC(=O)O)NC(=O)c2ncnc3[nH]ccc23)c1` was tested, and the IC50 was 50.4 µM and 38.6 µM and 39.5 µM.
`N#CCc1cccc(S(=O)(=O)Nc2cnc3[nH]ccc3c2)c1` gave an IC50 greater than 99.5 µM.
In the case of `CNC(=O)c1cccc(-c2cc3c(N[C@@H](c4ccc5c(c4)S(=O)(=O)CCC5)C(C)C)ncnc3[nH]2)c1`, the IC50 is reported as 6.74 µM.
In the case of `COC(=O)c1c[nH]c(-c2cc3c(N[C@@H](c4ccc5c(c4)OCCO5)C(C)C)ncnc3[nH]2)c1`, the IC50 is reported as 2.98 µM and 3.58 µM.
`CC(C)[C@@H](Nc1nc(N(C)C)nc2[nH]ccc12)c1ccc2c(c1)OCCO2` showed an IC50 greater than 99.5 µM.
`FC(F)(F)CO[C@@H]1CCCN(c2ncnc3[nH]ccc23)C1` gave an IC50 greater than 124 µM.
In the case of `CC(=O)N1CC(NC(=O)c2cc3c(N[C@@H](c4ccc5c(c4)OCCO5)C(C)C)ncnc3[nH]2)C1`, the IC50 is reported as 0.793 µM and 2 µM.
`CC(C)[C@@H](Nc1ncnc2[nH]c(-c3ccoc3C#N)cc12)c1ccc2c(c1)OCCO2` was tested, and the IC50 was 2.71 µM and 2.67 µM.
Molecule `O=C(O)C[C@@H](NC(=O)c1cnc2[nH]ccc2c1)c1ccc(Br)cc1` has an IC50 greater than 99.5 µM.
With `CC(C)[C@@H](Nc1ncnc2[nH]c(C3CCS(=O)(=O)CC3)cc12)c1ccc2c(c1)OCCO2` the IC50 was 1.19 µM and 1.78 µM.
With `CC(C)[C@@H](Nc1ncnc2ncccc12)c1ccc2c(c1)OCCO2` the IC50 was greater than 99.5 µM.
Molecule `CC[C@@H]1C[C@@H](C(=O)Nc2ncnc3[nH]c(C)c(C)c23)CCO1` has an IC50 greater than 124 µM.
With `CC(C)[C@@H](Nc1ncnc2[nH]c(C(=O)NCC3=NCCCN3)cc12)c1ccc2c(c1)OCCO2` the IC50 was 3.68 µM and 7.82 µM.
In the case of `CC(C)[C@@H](Nc1ncnc2[nH]ccc12)c1ccc2c(c1)OCC(=O)N2`, the IC50 is reported as 27.2 µM and 24.2 µM.
Molecule `CC(C)n1nccc1S(=O)(=O)Nc1cnc2[nH]ccc2c1` has an IC50 greater than 99.5 µM.
With `O=C(O)[C@H]1C[C@H](O)CN1c1ncnc2[nH]ccc12` the IC50 was greater than 99.5 µM.
With `COC(=O)c1cc2c(N[C@@H](c3ccc4c(c3)CCN4)C(C)C)ncnc2[nH]1` the IC50 was 28.8 µM and 37.6 µM and 28.4 µM.
With `CCc1coc(Nc2ccc([C@@H](CC(=O)O)NC(=O)c3c[nH]c4ncncc34)cc2)n1` the IC50 was 70.9 µM and 76.1 µM.
`Cc1noc2ncc(-c3cc4c(N[C@@H](c5ccc6c(c5)OCCO6)C(C)C)ncnc4[nH]3)cc12` was tested, and the IC50 was 3.73 µM and 3 µM.
With `CC(C)[C@@H](Nc1ncnc2[nH]c(C(=O)Nc3cnoc3)cc12)c1ccc2c(c1)OCCO2` the IC50 was 1.97 µM and 5.69 µM.
`O=C(O)[C@@H]1C[C@H](F)CN1c1ncnc2[nH]ccc12` gave an IC50 greater than 99.5 µM.
For `CC(C)[C@@H](Nc1ncnc2[nH]ccc12)C(=O)O`, the IC50 was 15.4 µM and 16.8 µM and 20.9 µM and 20.6 µM.
With `O=C(NCSC[C@@H](NC(=O)c1ncnc2[nH]ccc12)C(=O)O)c1ccccc1` the IC50 was greater than 99.5 µM.
With `CNCc1cc(-c2cc3c(N[C@H](c4ccc5c(c4)S(=O)(=O)CCC5)C(C)C)ncnc3[nH]2)co1` the IC50 was 2.24 µM and 1.91 µM and 0.971 µM.
In the case of `CC(C)[C@@H](Nc1ncnc2[nH]cc(S(N)(=O)=O)c12)c1ccc2c(c1)OCCO2`, the IC50 is reported as 3.43 µM and 3.07 µM.
With `CC(C)[C@@H](Nc1ncnc2[nH]c(-c3cncnc3)cc12)c1ccc2c(c1)S(=O)(=O)CCC2` the IC50 was 0.478 µM and 0.308 µM and 0.538 µM.
`CC(C)[C@@H](NCc1ncc[nH]1)c1ccc2c(c1)OCCO2` showed an IC50 greater than 99.5 µM.
With `CC(C)[C@@H](CN1CCCCC1)Nc1ncnc2[nH]ccc12` the IC50 was greater than 99.5 µM.
In the case of `Cc1ncc(-c2cc3c(N[C@@H](c4ccc5c(c4)OCCO5)C(C)C)ncnc3[nH]2)n1C`, the IC50 is reported as 0.674 µM and 0.711 µM.
With `Cc1[nH]c2ncnc(NC(=O)c3ccc(C#N)nc3)c2c1C` the IC50 was greater than 99.5 µM.
In the case of `Cc1[nH]c2ncnc(NC(=O)[C@@H]3CCc4c(Cl)cccc43)c2c1C`, the IC50 is reported as greater than 99.5 µM.
With `CC(C)[C@@H](Nc1cnc(C(=O)O)cn1)c1ccc2c(c1)OCCO2` the IC50 was greater than 99.5 µM.
Molecule `CNC(=O)c1c[nH]c2ncnc(N[C@@H](c3ccc4c(c3)NC(=O)CO4)C(C)C)c12` has an IC50 of 0.306 µM.
`C[C@@H](Nc1ncnc2[nH]ccc12)[C@@H]1CCCCO1` gave an IC50 greater than 99.5 µM.
`CCNC(=O)c1cc2c(N[C@H](c3ccc4c(n3)S(=O)(=O)CCO4)C(C)C)ncnc2[nH]1` showed an IC50 of 0.11 µM.
Molecule `Cc1nnc(Nc2ccc(C(=O)N[C@H]3c4cccc(O)c4C[C@H]3C(=O)O)cc2)o1` has an IC50 greater than 99.5 µM.
Work on `CC(C)[C@H](Nc1cc(-n2ccnn2)ncn1)c1ccc2c(c1)S(=O)(=O)CCC2` yielded an IC50 greater than 99.5 µM.
`CNc1ncnc(N[C@H](c2ccc3c(c2)S(=O)(=O)CCC3)C(C)C)c1Cl` was tested, and the IC50 was greater than 99.5 µM.
`CNC(=O)c1c[nH]c2ncnc(N[C@@H](c3ccc4c(c3)OCCO4)C(C)C)c12` was tested, and the IC50 was 0.728 µM and 0.692 µM.
With `COCc1noc(C)c1-c1cc2c(N[C@@H](c3ccc4c(c3)OCCO4)C(C)C)ncnc2[nH]1` the IC50 was greater than 99.5 µM.
Molecule `CO[C@@H]1CCCN(C(=O)c2cnn3ccc(C4CCN(C(=O)c5ccccc5)CC4)cc23)C1` has an IC50 greater than 99.5 µM.
Work on `CC(C)[C@@H](Nc1ncnc2[nH]ccc12)C(N)=O` yielded an IC50 of 30.7 µM.
Work on `Cc1[nH]c2ncnc(NC(=O)c3cccnc3)c2c1C` yielded an IC50 greater than 99.5 µM.
For `Cc1[nH]c2ncnc(NC(=O)C3(c4ccc(F)cc4)CCC3)c2c1C`, the IC50 was 19.5 µM and 21.8 µM.
`CC(C)[C@@H](Nc1cccc2nc[nH]c(=O)c12)c1ccc2c(c1)S(=O)(=O)CCC2` gave an IC50 greater than 99.5 µM.
With `CCNC(=O)c1cc2c(N[C@H](c3cnc(C(=O)N(C)C)nc3)C(C)C)ncnc2[nH]1` the IC50 was 47.5 µM.
`O=C(O)[C@H](CC1CCCCC1)Nc1ncnc2[nH]ccc12` was tested, and the IC50 was 92.3 µM and 91.8 µM.
`O=C(Nc1cccc2c(C(=O)Nc3cc4c(cc3C(=O)O)OCCO4)c[nH]c12)NC1CC1` was tested, and the IC50 was greater than 99.5 µM.
Work on `CNS(=O)(=O)c1cc2c(N[C@@H](c3ccc4c(c3)S(=O)(=O)CCC4)C(C)C)ncnc2[nH]1` yielded an IC50 of 1.17 µM.
`CC(C)[C@@H](Nc1ncnc2c1ccn2C)c1ccc2c(c1)OCCO2` showed an IC50 greater than 99.5 µM.
Work on `O=C(OCc1ccc(Cl)nc1)c1ncnc2[nH]ccc12` yielded an IC50 greater than 99.5 µM.
In the case of `O=C(c1ncc[nH]1)N1CCC(c2ccn3ncc(C(=O)N4CCCCC4)c3c2)CC1`, the IC50 is reported as greater than 99.5 µM.
`CC(C)[C@H](Nc1ncncc1-c1nc[nH]n1)c1ccc2c(c1)S(=O)(=O)CCC2` showed an IC50 greater than 99.5 µM.
With `COc1cccc([C@@H](Nc2ncnc3[nH]ccc23)C(C)C)c1` the IC50 was 25.7 µM and 39.9 µM.
Work on `CNS(=O)(=O)C[C@@H](NC(=O)c1ncnc2[nH]ccc12)c1ccc(Br)cc1` yielded an IC50 greater than 99.5 µM.
For `O=C(N[C@@H](C(=O)O)c1ccc2c(c1)CCO2)c1ncnc2[nH]ccc12`, the IC50 was 78.4 µM and 74.6 µM.
`O=C(O)[C@H](CC1CC1)Nc1ncnc2[nH]ccc12` was tested, and the IC50 was greater than 99.5 µM.
Molecule `CC(C)[C@@H](Nc1cc(N2CCNCC2)ncn1)c1ccc2c(c1)S(=O)(=O)CCC2` has an IC50 greater than 99.5 µM.
`Cc1cccc(C)c1-n1nnnc1CSc1ncnc2[nH]cnc12` was tested, and the IC50 was greater than 99.5 µM.
`O=C(c1ccccc1)N1CCC(c2ccn3ncc(C(=O)N4CCCC[C@H](O)C4)c3c2)CC1` showed an IC50 greater than 99.5 µM.
With `Cn1ccc2c(C(=O)N[C@@H](CC(=O)O)c3ccc(Br)cc3)ccnc21` the IC50 was 36.6 µM and 33.2 µM.
In the case of `O=S(=O)(Cc1ccccc1F)Nc1cnc2[nH]ccc2c1`, the IC50 is reported as greater than 99.5 µM.
With `CC(C)[C@@H](Nc1cc(NCC(F)(F)F)ncn1)c1ccc2c(c1)S(=O)(=O)CCC2` the IC50 was 2.25 µM.
Molecule `CCNC(=O)c1cc2c(N[C@@H](C(=O)NC3CCOCC3)C(C)C)ncnc2[nH]1` has an IC50 greater than 99.5 µM.
`O=C(O)[C@@H](CC(F)F)Nc1ncnc2[nH]ccc12` was tested, and the IC50 was 80.7 µM and 94.4 µM.
`c1nc(N[C@@H](c2ccc3c(c2)OCCO3)C2CNC2)c2cc[nH]c2n1` gave an IC50 greater than 99.5 µM.
With `CC(C)[C@@H](Nc1ncnc2[nH]c(C3=CCOC3)cc12)c1ccc2c(c1)OCCO2` the IC50 was 0.421 µM and 0.563 µM.
`CC(C)[C@@H](Nc1ncnc2[nH]c(-c3ccc4cncn4c3)cc12)c1ccc2c(c1)S(=O)(=O)CCC2` was tested, and the IC50 was 0.123 µM and 0.095 µM.
For `O=C(O)c1ccsc1C(=O)N1CCC(c2ccn3ncc(C(=O)N4CCCCC4)c3c2)CC1`, the IC50 was 58.9 µM.
For `CC(C)[C@@H](Nc1ncnc2[nH]cc(C(N)=O)c12)c1ccc2c(c1)OCCO2`, the IC50 was 0.786 µM and 0.865 µM.
Work on `CC(C)[C@@H](NC(=O)c1ccccn1)c1ccc2c(c1)OCCO2` yielded an IC50 greater than 99.5 µM.

From ChEMBL document CHEMBL5441456, “ASAP - SARS-CoV-2 nsp3 macrodomain dose response” (2024)
